Assay results reported in PMC2806265, “Divergence of allosteric effects of rapacuronium on binding and function of muscarinic receptors” (BMC Pharmacology, 2009).
Where two headings read alike, the source gives them in different places.

Key:
M1 muscarinic receptor [1] = target: T1, M1 muscarinic receptor (Homo sapiens, UniProt P11229); type: binding
T1 construct: host or cells: CHO cells, stably transfected; membrane preparation
T1 sequence (P11229 1-460): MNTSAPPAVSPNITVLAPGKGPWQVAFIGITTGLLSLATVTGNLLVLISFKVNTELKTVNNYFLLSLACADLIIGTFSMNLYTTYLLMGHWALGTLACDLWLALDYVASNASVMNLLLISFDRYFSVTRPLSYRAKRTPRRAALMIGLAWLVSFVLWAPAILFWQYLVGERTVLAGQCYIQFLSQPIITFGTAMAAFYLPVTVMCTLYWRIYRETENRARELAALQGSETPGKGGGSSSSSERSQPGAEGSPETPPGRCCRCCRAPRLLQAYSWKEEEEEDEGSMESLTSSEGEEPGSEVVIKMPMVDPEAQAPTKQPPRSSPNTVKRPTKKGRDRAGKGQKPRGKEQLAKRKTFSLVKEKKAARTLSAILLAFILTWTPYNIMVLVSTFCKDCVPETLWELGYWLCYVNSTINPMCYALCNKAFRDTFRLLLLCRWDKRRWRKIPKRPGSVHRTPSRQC
Description: (§1) BMAX, maximum binding capacity; KD, equilibrium dissociation constant.

M3 muscarinic receptor [2] = target: T2, M3 muscarinic receptor (Homo sapiens, UniProt P20309); type: binding
T2 construct: host or cells: CHO cells, stably transfected; membranes
Description: as §1

M1 muscarinic receptor [3] = target: T1, M1 muscarinic receptor; experiment: Effect of rapacuronium on high-affinity 20 nM [3H]ACh binding
Description: (§2) Cooperativity factor greater than 1 denotes negative cooperativity and less than 1 positive cooperativity. Due to its log-normal error distribution factors of cooperativity are expressed as negative logarithms (pα) through the manuscript so negative values denotes negative cooperativity and positive value denotes positive cooperativity.

M3 muscarinic receptor [4] = target: T2, M3 muscarinic receptor; experiment: as above
Description: as §2

M2 muscarinic receptor [5] = target: T3, M2 muscarinic receptor (Homo sapiens, UniProt P08172); experiment: [3H]NMS saturation binding
T3 sequence (P08172 1-466): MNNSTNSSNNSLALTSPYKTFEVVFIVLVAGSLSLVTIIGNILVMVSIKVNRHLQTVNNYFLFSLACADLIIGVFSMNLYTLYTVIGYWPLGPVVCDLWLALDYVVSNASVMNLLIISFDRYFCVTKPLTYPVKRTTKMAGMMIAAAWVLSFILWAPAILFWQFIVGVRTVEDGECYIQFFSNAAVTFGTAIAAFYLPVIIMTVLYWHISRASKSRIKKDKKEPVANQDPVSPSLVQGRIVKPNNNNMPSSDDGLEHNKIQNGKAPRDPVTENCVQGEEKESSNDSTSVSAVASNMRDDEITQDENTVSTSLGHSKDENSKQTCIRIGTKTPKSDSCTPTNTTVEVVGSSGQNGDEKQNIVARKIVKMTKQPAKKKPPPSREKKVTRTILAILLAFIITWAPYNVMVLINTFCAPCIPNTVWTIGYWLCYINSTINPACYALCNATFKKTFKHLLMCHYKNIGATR

M4 muscarinic receptor = target: T4, M4 muscarinic receptor (Homo sapiens, UniProt P08173); experiment: [3H]NMS saturation binding
T4 sequence (P08173 1-479): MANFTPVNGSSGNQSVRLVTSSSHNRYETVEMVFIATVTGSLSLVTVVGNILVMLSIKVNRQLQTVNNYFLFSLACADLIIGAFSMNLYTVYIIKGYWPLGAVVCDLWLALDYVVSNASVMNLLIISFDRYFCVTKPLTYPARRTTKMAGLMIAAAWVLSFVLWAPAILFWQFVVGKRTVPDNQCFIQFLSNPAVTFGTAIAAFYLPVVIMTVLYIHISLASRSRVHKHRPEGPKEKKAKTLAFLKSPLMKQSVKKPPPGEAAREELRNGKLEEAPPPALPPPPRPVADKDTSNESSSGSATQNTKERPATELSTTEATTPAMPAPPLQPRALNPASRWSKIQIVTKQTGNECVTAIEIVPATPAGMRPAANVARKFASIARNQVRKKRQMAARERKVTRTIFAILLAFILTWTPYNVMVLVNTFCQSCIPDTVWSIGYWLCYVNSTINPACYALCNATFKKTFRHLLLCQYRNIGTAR

[6] = test system: M1 to M5 muscarinic receptors; experiment: [35S]GTPγS binding, statements over several subtypes; details: rapacuronium alone
Description: (§3) For determination of [^35S]GTPγS binding to G-proteins in membranes a final concentration of 200 pM (M1, M3 and M5 receptors) or 500 pM (M2 and M4 receptors) of [^35S]GTPγS was used. Incubation medium was supplemented with 5 μM (M1, M3 and M5 receptors) or 50 μM (M2 and M4 receptors) GDP. […] Incubation with [^35S]GTPγS was carried out for 20 min and free ligand was removed by filtration as described above. Filtration and washing with ice-cold water lasted for 9 s (wash-aspirate button time).

M2 muscarinic receptor [7] = target: T3, M2 muscarinic receptor; experiment: Effect of rapacuronium on low-affinity ACh binding ([3H]NMS + GTPγS + ACh); set-up: host or cells: CHO cells, stably transfected; membrane preparation
Description: Data are expressed as percent of specific binding in the absence of rapacuronium. […] Data are means ± SE from 3 independent experiments performed in quadruplicates. Curves are fits of Eq. 3 (circles) and Eq. 4 (squares and triangles) to data prior to normalization.

M2 muscarinic receptor [8] = target: T3, M2 muscarinic receptor; experiment: [35S]GTPγS binding to membranes; type: biochemical; set-up: host or cells: CHO cells, stably transfected; membrane preparation; details: for EMAX of ACh on [^35S]GTPγS binding: fold of basal
Description: as §3

[9] = read-out: pKA of rapacuronium (converted)

T2 sequence (P20309 whole entry): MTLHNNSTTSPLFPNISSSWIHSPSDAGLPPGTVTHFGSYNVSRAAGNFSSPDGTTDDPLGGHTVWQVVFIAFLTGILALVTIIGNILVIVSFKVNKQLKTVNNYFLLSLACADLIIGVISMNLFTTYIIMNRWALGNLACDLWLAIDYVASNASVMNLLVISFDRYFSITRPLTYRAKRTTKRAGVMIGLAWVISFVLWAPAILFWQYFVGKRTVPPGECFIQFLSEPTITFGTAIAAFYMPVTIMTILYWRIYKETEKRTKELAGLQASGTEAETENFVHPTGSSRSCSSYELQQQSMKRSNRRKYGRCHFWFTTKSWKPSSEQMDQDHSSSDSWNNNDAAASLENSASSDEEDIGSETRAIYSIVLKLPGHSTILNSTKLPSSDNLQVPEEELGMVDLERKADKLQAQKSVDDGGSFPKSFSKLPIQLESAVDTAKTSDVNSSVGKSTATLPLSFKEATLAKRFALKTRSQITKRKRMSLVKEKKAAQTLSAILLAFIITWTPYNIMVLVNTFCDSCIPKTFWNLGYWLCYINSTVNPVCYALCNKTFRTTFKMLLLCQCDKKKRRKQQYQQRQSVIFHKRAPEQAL

C=CC[N+]1([C@H]2C[C@H]3[C@@H]4CC[C@H]5C[C@H](OC(C)=O)[C@@H](N6CCCCC6)C[C@]5(C)[C@H]4CC[C@]3(C)[C@H]2OC(=O)CC)CCCCC1 [rapacuronium]
BMAX of [^3H]NMS (M1 muscarinic receptor [1]; + 10 μM rapacuronium): 2.03 ± 0.15 fmol/μg of protein
BMAX of [^3H]NMS (M1 muscarinic receptor [1]; + 100 μM rapacuronium): 1.85 ± 0.17 fmol/μg of protein
BMAX of [^3H]NMS (M3 muscarinic receptor [2]; + 10 μM rapacuronium): 1.67 ± 0.14 fmol/μg of protein
BMAX of [^3H]NMS (M3 muscarinic receptor [2]; + 100 μM rapacuronium): 1.59 ± 0.16 fmol/μg of protein
pα, cooperativity with [^3H]ACh high affinity binding (M1 muscarinic receptor [3]; M1, negative value = negative cooperativity): -1.30 ± 0.07
Kd (M1 muscarinic receptor [3]; [9]): 4.27 µM
pα, cooperativity with [^3H]ACh high affinity binding (M3 muscarinic receptor [4]; M3, negative value = negative cooperativity): -1.26 ± 0.05
Kd (M3 muscarinic receptor [4]; [9]): 15.8 µM
BMAX of [^3H]NMS (M2 muscarinic receptor [5]; + 10 μM rapacuronium): 1.62 ± 0.14 fmol/μg of protein
BMAX of [^3H]NMS (M2 muscarinic receptor [5]; + 100 μM rapacuronium): 1.66 ± 0.14 fmol/μg of protein
BMAX of [^3H]NMS (M4 muscarinic receptor; + 10 μM rapacuronium): 1.17 ± 0.13 fmol/μg of protein
BMAX of [^3H]NMS (M4 muscarinic receptor; + 100 μM rapacuronium): 1.06 ± 0.10 fmol/μg of protein
maximal lowering of [^35S]GTPγS binding ([6]; even-numbered subtypes): ~15%
maximal lowering of [^35S]GTPγS binding ([6]; odd-numbered subtypes): approximately 25%
pβ, cooperativity with ACh low affinity binding (M2 muscarinic receptor [7]; M2, negative value = negative cooperativity): -1.52 ± 0.06
Kd (M2 muscarinic receptor [7]; [9]): 2.75 µM
EMAX of ACh on [^35S]GTPγS binding (M2 muscarinic receptor [8]; + 0.1 μM rapacuronium): 3.10 ± 0.15
EMAX of ACh on [^35S]GTPγS binding (M2 muscarinic receptor [8]; + 1 μM rapacuronium): 2.93 ± 0.13
EMAX of ACh on [^35S]GTPγS binding (M2 muscarinic receptor [8]; + 10 μM rapacuronium): 2.46 ± 0.18
EMAX of rapacuronium on [^35S]GTPγS binding (M2 muscarinic receptor [8]; rapacuronium alone, normalized to absence of rapacuronium): 0.84 ± 0.06
EC50 (M2 muscarinic receptor [8]; rapacuronium alone, read-out: pEC50 of rapacuronium on [^35S]GTPγS binding (converted)): 28.2 µM
